Calls of active or inactive are those of the source. No cut-off for these calls is given here.
Experiments:
[1] = test system: Mus musculus; assay: In vivo inhibition of HSP90 in mouse xenografted with human Capan1 cells assessed as decrease in AKT protein expression at 36 mg/kg, iv for every 2 days measured at 2 hrs post last dose by Western blot analysis; type: functional, organism-based
[2] = Prodrug release in tumor of mouse xenografted with human HCT116 cells assessed as increase in 7-ethyl-10-hydroxycamptothecin level at 15 mg/kg, iv administered as single dose by LC-MS/MS analysis; type: ADME, organism-based, Neoplasm; details: in vivo
[3] = Prodrug release in mouse plasma xenografted with human HCT116 cells assessed as increase in 7-ethyl-10-hydroxycamptothecin level at 15 mg/kg, iv administered as single dose and measured after 30 mins to 72 hrs by LC-MS/MS analysis; type: ADME, organism-based; details: in vivo
[4] = test system: A549; assay: Downregulation of TOP1 expression in human A549 cells after 24 hrs by Western blot analysis; type: functional, cell-based
[5] = Drug uptake in human A549 cells assessed as maximum emission peaks at 430 nm at 5 uM by fluorescence emission spectral analysis; type: ADME, cell-based; details: a549, 5 µM
[6] = test system: CAPAN-1; assay: Antiproliferative activity against human Capan1 cells assessed as reduction in cell viability after 72 hrs by SRB assay; type: functional, cell-based; details: CAPAN-1, 72 h
[7] = test system: A549; assay: Antiproliferative activity against human A549 cells assessed as reduction in cell viability after 72 hrs by SRB assay; type: functional, cell-based; details: A549, 72 h
[8] = Drug uptake in human A549 cells assessed as blue fluorescence at 5 uM after 12 hrs by confocal laser scanning microscopic analysis; type: ADME, cell-based; details: a549, 12 h
[9] = test system: HCT-116; assay: Downregulation of TOP1 expression in human HCT116 cells after 24 hrs by Western blot analysis; type: functional, cell-based
[10] = test system: L02; assay: Cytotoxicity agains human HL7702 cells assessed as reduction in cell viability after 72 hrs by SRB assay; type: cell-based; details: L02, 72 h
[11] = test system: Mus musculus; assay: In vivo inhibition of topoisomerase 1 in mouse xenografted with human Capan1 cells assessed as increase in phosphorylated KAP1 expression at 36 mg/kg, iv for every 2 days measured at 2 hrs post last dose by Western blot analysis; type: functional, organism-based
[12] = test system: MIA PaCa-2; assay: Antiproliferative activity against human MIAPaCa2 cells assessed as reduction in cell viability after 72 hrs by SRB assay; type: functional, cell-based; details: MIA PaCa-2, 72 h
[13] = Drug uptake in human A549 cells assessed as blue shift in absorption spectrum at 5 uM by UV-visible absorption spectral analysis; type: ADME, cell-based; details: a549, 5 µM
[14] = test system: HCT-116; assay: Antiproliferative activity against human HCT116 cells assessed as reduction in cell viability after 72 hrs by SRB assay; type: functional, cell-based; details: HCT-116, 72 h
[15] = Prodrug release in tumor of mouse xenografted with human Capan1 cells assessed as increase in 7-ethyl-10-hydroxycamptothecin level at 36 mg/kg, iv after 24 hrs by LC-MS/MS analysis; type: ADME, organism-based, Neoplasm; details: in vivo
[16] = test system: Mus musculus; assay: Down regulation of topoisomerase 1 expression in mouse xenografted with human Capan1 cells at 36 mg/kg, iv for every 2 days measured at 2 hrs post last dose by Western blot analysis; type: functional, organism-based
[17] = test system: Mus musculus; assay: In vivo inhibition of HSP90 in mouse xenografted with human Capan1 cells assessed as increase in HSP70 protein expression at 36 mg/kg, iv for every 2 days measured at 2 hrs post last dose by Western blot analysis; type: functional, organism-based

Drug metabolism [2]: Metabolite_Detected
Drug metabolism [3]: Metabolite_Detected
Drug uptake [5]: Active
IC50 [7]: 1.56 µM
Drug uptake [8]: Not Active
IC50 [12]: 1.33 µM
Drug uptake [13]: Active
IC50 [14]: 0.498 µM
Drug metabolism [15]: Metabolite_Notdetected
Compound: CCc1c2c(nc3ccc(OC(=O)N4CCC(N5CCCCC5)CC4)cc13)-c1cc3c(c(=O)n1C2)COC(=O)[C@]3(O)CC [IRINOTECAN]
inhibition [1]: inactive
TOP1 downregulation [4]: Active
IC50 [6]: 1.12 µM
inhibition [9]: Active
IC50 [10]: 1.3 µM
inhibition [11]: Active
inhibition [16]: Active
inhibition [17]: inactive

From ChEMBL document CHEMBL4354883, “Design, Synthesis, and Biological Evaluation of HSP90 Inhibitor-SN38 Conjugates for Targeted Drug Accumulation” (J Med Chem, 2020)
